Experimental findings from US11738042B2, “Compositions and methods for promoting bone regeneration” (The Penn State Research Foundation, priority 2018, dated 2023) are described below.

Holding throughout (assay type): cell-based, human
For experiment [1], the system named is hMSCs. Briefly: Protein synthesis assay in undifferentiated hMSCs. As to conditions: for citrate-mediated protein synthesis in presence of inhibitor: GM, with citrate. The protocol:
Upon 24 and 96 hours incubation, protein synthesis was measured by labeling the intracellular translating proteins with clickable probes (Protein Synthesis Assay kit, Cayman Chemical, Ann Arbor, Mich.).

For experiment [2], the system named is hMSCs. Briefly: ALP production / osteogenic markers of hMSCs with soluble citrate, PSer or inhibitor (PNPP assay, western blot). (Immunoblotting shows a protein as a band on a membrane.)
Source text: (§1) hMSCs with passage ≤6 were used in the present differentiation study. […] For osteo-phenotype progression assessment, cells were lysed, and alkaline phosphatase (ALP) production was quantified by using p-nitrophenyl phosphate (PNPP) as its substrate. Alizarin Red was used to stain the calcium nodules formed by the differentiating cells, and the calcium content in the nodules was quantified by Calcium Assay Kit (Sigma-Aldrich, St. Louis, Mo.) and normalized to protein amount as determined by BCA protein assay kit (Thermo Scientific™, Waltham, Mass.). Expression of osteogenic master transcription factor Runx2 was examined by real-time PCR and by using a Runx2 ELISA kit (American Research Products, Inc.™, Waltham, Mass.) according to manufacturer's instructions. Moreover, the expression of bone matrix proteins Collagen type I and osteopontin (OPN) were evaluated with real-time PCR, while OPN expression were also observed by immunofluorescent staining. Western blot was performed to evaluate the expression of ALP, OPN and SLC13a5 before or after differentiating for predetermined time periods.
For ALP expression analysis, cell samples were lysed using RIPA buffer, and the cell lysate was centrifuged to remove debris. Then ALP activity measurement was performed by utilizing p-nitrophenyl phosphate (PNPP) which is hydrolyzed by ALP into a yellow colored product. Briefly, the PNPP stock solution (IM) was diluted with ALP assay buffer at a ratio of 1:100, 50 μL of which was subsequently added to 50 μL of lysate sample. After 10-30 min of incubation at 37° C., the plates were measured at 405 nm on a plate reader (TECAN, Männedorf, Switzerland). The same cell lysate solutions were used to determine DNA amount via a PicoGreen dsDNA quantification kit (Invitrogen, Carlsbad, Calif.) according to the manufacturer's instructions.
After protein quantification by BCA assay, gel electrophoresis was carried out on AnykD™ Mini-Protean TGX stain-free Protein gels at 50 V for 10 min, followed by 250 V for 10-20 min, and was transferred to PVDF membranes with the Trans-Blot Turbo™ system. […]
Experiment [3] has as its system hMSCs. Briefly: Intracellular ATP determination in hMSCs.
In experiment [4] the test system is hMSCs. The experiment is described as follows: Oxygen consumption rate (OCR) study in hMSCs.
Experiment [5] has as its system hMSCs. Briefly: hMSC proliferation with citrate (CCK-8). As to conditions: citrate 0 to 2000 μM, pH 7.4, in growth medium (GM).
Source text: as §1
Human mesenchymal stem cells (hMSCs; Lonza) were cultured in low glucose Dulbecco's Modified Eagle Medium (DMEM) with 10 vol. % fetal bovine serum (FBS) (Atlanta Biologicals; Flowery Branch, Ga.) and GlutaMAX (Gibco Laboratories, Gaithersburg, Md.). […]
Experiment [6] concerns hMSCs. The experiment is described as follows: Alizarin Red staining and calcium quantification of hMSCs. Conditions: citrate in growth medium (GM).
Procedure: hMSCs with passage ≤6 were used in the present differentiation study. […] Alizarin Red was used to stain the calcium nodules formed by the differentiating cells, and the calcium content in the nodules was quantified by Calcium Assay Kit (Sigma-Aldrich, St. Louis, Mo.) and normalized to protein amount as determined by BCA protein assay kit (Thermo Scientific™, Waltham, Mass.).
For Alizarin Red staining, cell samples were fixed with 4% paraformaldehyde, and 40 mM Alizarin red solutions were used to stain calcium nodules for 30 min with gentle shaking. After thoroughly washing, the stained cells were observed on a Microscope (Nikon, Tokyo, Japan). For calcium quantification, cell samples were washed with PBS and decalcified in 0.6 N HCl for 12 h with gentle shaking. Calcium content in the supernatants was determined colorimetrically by using the Calcium assay kit (Sigma-Aldrich, St. Louis, Mo.), while protein content in cell lysate solutions (lysed with RIPA buffer) was determined using the Pierce BCA protein assay kit (Thermo Scientific™, Waltham, Mass.) according to manufacturer's instructions.
Experiment [7] concerns hMSCs. The experiment is described as follows: Real-time PCR of osteogenic genes in differentiating hMSCs. Conditions: 200 μM citrate vs OG control, 7 and 14 days. Background: Quantitative PCR measures a nucleic acid by following its amplification.
Source text: as §1
Total RNA from whole cells was isolated with QIAGEN RNeasy kit (Hilden, Germany) and was transcribed into cDNA using High-Capacity cDNA Reverse Transcription Kits (Applied Biosystems™, Foster City, Calif.). For quantitative analysis, real-time PCR was performed using cDNA as the template, together with TaqMan Gene Expression Master Mix and the TaqMan Gene Expression Assays with both primers and probe included (Applied Biosystems™, Foster City, Calif.), and using the ABI 7900HT Fast Real-Time PCR system (Applied Biosystems™, Foster City, Calif.) according to manufacturer's instructions. Human PPIA (Cyclophilin A) was used for normalization. The primers and TaqMan probe for human Runx2, CoL1A1, SPP1 and PPIA were Hs00231692_ml, Hs00164004_ml, Hs00959010_ml, and Hs99999904_ml, respectively.
For experiment [8], the system named is hMSCs. Briefly: Runx2 ELISA in hMSCs. As to conditions: citrate treatment in OG, as early as day 4. In general terms: An ELISA detects its analyte on a solid surface through an enzyme-linked reagent.
Source text: as §1
The subject of experiment [9] is hMSCs. Briefly: Citrate assay, intracellular citrate in hMSCs. Conditions: 24 h incubation with citrate supplemented medium.
Experiment [10] deals with hMSCs. The experiment is described as follows: Extracellular acidification rate (ECAR) / glycolysis and lactate production in hMSCs. Conditions: undifferentiated hMSCs, 24 h citrate treatment in GM.
The mark [11] stands for this setting: differentiating hMSCs in OG, vs OG medium control.
[12] abbreviates: undifferentiated hMSCs, 24 h citrate treatment in GM.

For the compound `C[C@@H]1C[C@@H]([C@H](O)CC2CC(=O)NC(=O)C2)C(=O)[C@@H](C)C1` [Cycloheximide], the “citrate-mediated protein synthesis in presence of inhibitor” value with hMSCs [1] is “abolished this activity”.
Turning to `COc1ncc(C)cc1CC[C@@](O)(CC(=O)O)C(=O)O` [PF06761281, reference compound], the “citrate-induced elevation of ALP production with SLC13a5 inhibitor” value in the experiment on hMSCs [2] (14 days in OG, citrate plus inhibitor) was “negated the citrate-induced elevation of ALP production”. The “citrate effect on metabolic flux to elevate intracellular ATP levels, with SLC13a5 inhibitor” value with hMSCs [3] (undifferentiated hMSCs, citrate plus inhibitor) is “could be abolished”. Further, the “citrate-increased mitochondrial respiration with SLC13a5 inhibitor” value in the experiment on hMSCs [4] (hMSCs differentiated for 14 days, 1 day treatment in OG) is on record as “likewise abolished”.
For the compound `N[C@@H](COP(=O)(O)O)C(=O)O` [PSer, Phosphoserine], in the experiment with hMSCs [2] (40 μM PSer with citrate in OG, 21 days), the “citrate-promoted osteo-phenotype progression (ALP production)” value is given as “substantially enhanced”. In addition, the ALP production result in the experiment on hMSCs [2] (higher PSer dosages (up to 1000 μM) with citrate in OG, 21 days) was “further elevation of ALP production”. In the experiment with hMSCs [3] (setting [11]), the “intracellular ATP” value was “showed no difference from the OG medium control”. For the same compound, the “intracellular ATP levels” value in the experiment with hMSCs [3] (undifferentiated hMSCs, addition of PSer with or without citrate treatment) is recorded as “no significant effect”.
With `CCC(=O)N1CCN(c2ccc(-n3c(=O)ccc4cnc5ccc(-c6cnc7ccccc7c6)cc5c43)cc2C(F)(F)F)CC1` [Torin1], the “citrate-mediated protein synthesis in presence of inhibitor” value in the experiment on hMSCs [1] is recorded as “abolished this activity”.
`O=C(O)CC(O)(CC(=O)O)C(=O)O` [citrate]: the hMSCs proliferation entry in the experiment on hMSCs [5] is given as “little increase”. In addition, in the experiment with hMSCs [6], the “calcium deposition by Alizarin Red staining” value was “absence of calcium deposition”. Also, in the experiment with hMSCs [7], the “expression of Col1a1 (real-time PCR)” value is listed as “remarkably elevated expression”, the “expression of Runx2 (real-time PCR)” value is “remarkably elevated expression” and the “expression of SPP1 (real-time PCR)” value is reported as “remarkably elevated expression”. For the same compound, in the experiment with hMSCs [8], the “Runx2 protein (ELISA)” value is listed as “favorable accumulation”. Further, in the experiment with hMSCs [1] (200 μM citrate in GM, 24 h and 96 h, vs control without citrate), the protein synthesis entry is “increased significantly”. Moreover, in the experiment with hMSCs [9], the intracellular citrate entry is reported as “marked increase”. Besides, the “intracellular ATP” value in the experiment on hMSCs [3] (setting [11]) is given as “showed no difference from the OG medium control”. Besides, the “intracellular ATP” value with hMSCs [3] (hMSCs differentiated for 14 days, citrate in OG for 1 or 4 days) is “significant effects on intracellular ATP only after 4 days of treatment”. Moreover, the “intracellular ATP levels” value in the experiment with hMSCs [3] (setting [12]) is listed as “elevated intracellular ATP levels”. Further, in the experiment on hMSCs [4] (hMSCs differentiated for 14 days, 1 day citrate treatment in OG), the “mitochondrial respiration (OCR)” value is “markedly increased”. Further, the “oxygen consumption rate (OCR)” value in the experiment with hMSCs [4] (setting [12]) is recorded as “increased oxygen consumption rate”. For the same compound, in the experiment on hMSCs [10], the “glycolytic flux (ECAR)” value is recorded as “decrease in glycolytic flux” and the production of lactate entry was “reduced production of lactate”.
